Data reported in patent US20220291236A1, “DETECTION OF DYSTROGLYCAN” (ML Bio Solutions Inc., priority 2021, published 2022).

System: alpha-dystroglycan (αDG)
Test: Multiplexed Western Blot of total αDG and glycosylated αDG in muscle lysates of P448L mutant FKRP mice untreated or treated with 5% Ribitol
Assay type: in vivo, mouse
Conditions: 5% Ribitol treated P488L mice compared to untreated P488L mice, heart muscle and TA lysates, region ~50-250 kDa
Description: Tissue samples were processed using a TissueLyzer IITM (Qiagen®). Approximately 250 milligrams (mg) of tissue was placed in a 2 mL microtube with a steel bead and 1 mL of Radioimmunoprecipitation assay buffer (RIPA) buffer supplemented with protease and phosphatase inhibitors. The microtubes were subjected to three cycles of disruption (2 minutes at 25 Hertz (Hz)) in the TissueLyzer IITM. Lysates were clarified by centrifugation and the supernatant was transferred to fresh tubes and lysate concentration was determined using a BCA assay (Pierce®). Polyacrylamide gel electrophoresis was carried out on 4-20% […] gels. […] The membrane was visualized on an Odyssey CLxTM imager (LiCorTM) and intensities of the 700 and 800 nm channels were recorded. […] Signal intensities were normalized to total protein and the ratio of 700 nm normalized signal/800 nm normalized signal was determined. Linear fits were assessed where applicable using the linear regression function of PrismTM. Statistical significance was determined using an unpaired t-test using PrismTM. 1) StainFree gel image is quantitated using ImageLabTM software to analyze the image from the ChemiDocTM Imaging System. […] Signal intensities were normalized to total protein and the ratio of 700 nm normalized signal/800 nm normalized signal was determined. Linear fits were assessed were applicable using a linear regression function. […]

For OC[C@@H](O)[C@@H](O)[C@@H](O)CO [Ribitol, (2R,3s,4S)-Pentane-1,2,3,4,5-pentol], the “αDG expression (total αDG signal)” value (normalized to C57 untreated control (FIG. 6B)) was “increased” and the “ratio of glycosylated αDG to total αDG” value (normalized to C57 untreated control (FIG. 6C)) was “increased”.
